Experimental findings from US12390435B2, “Electrophiles and electrophile pro-drugs as RAD51 inhibitors” (University of Pittsburgh—Of the Commonwealth System of …, priority 2018, dated 2025) are described below.

The term EC50 denotes the concentration at which the effect is half-maximal.

Data set [1] concerns MDA-MB-231 cells. Briefly: CellTiter-Glo relative growth (luminescent ATP). The class given is cell-based. As to the method: (§1) HEK 293T, MDA-MB-231, MDA-MB-468, Hs578T and BT-549 cells (American Type Culture Collection) were cultured at 37° C. with 5% CO2 in Dulbecco's modified Eagle's medium containing (DMEM) (Gibco) supplemented with 5% FBS (HyClone), 100 units/ml penicillin, […] streptomycin (Gibco), non-essential amino acids (Gibco) and 2 mM 1-glutamine (Gibco). Doxorubicin (Selleckchem), cisplatin (Sigma) or olaparib (Selleckchem) were dissolved in DMSO or DMF (cisplatin). […] Pure NO2-OA was diluted in DMSO and added to cells after solvation in assay media. Relative cell numbers were compared by measuring the luminescent signal generated by ATP using the CellTiter-Glo (Promega) assay. Cells were plated in a 96-well plate at 5,000 (MDA-MB-231) or 6,600 (BT549 or Hs578T) cells per well.
(§2) Data represent the mean±SEM from 3 independent experiments unless otherwise noted. A p value<0.05 was considered statistically significant. Non-linear curves were generated in GraphPad Prism 7.0 (GraphPad Software, La Jolla, CA, USA) for statistical analysis. EC50 values and standard error were calculated from three independent experiments utilizing a non-linear dose response variable slope model. Significance was tested by one-way ANOVA for multiple groups with Tukey posttest or by t-test when groups were less than three. RAD51 foci number was analyzed with ImageJ. Nuclear boundaries were individually identified in more than 50 cells per treatment group in three independent experiments.
(§3) The growth of BT-549 cells was not affected. […] MDA-MB-231 cells were plated in a 96 well plate and treated with talazoparib (0.01-75 μM) plus OA-NO2 or NDA-NO2 (0.2-12 μM) daily for 3 days. Growth inhibition (relative cell numbers) of MDA-MB-231 cells was determined by luminescent detection of ATP (CellTiter-Glo) (FIG. 1K).
In general terms: Cellular ATP, detected with luciferase, serves as a proxy for viable cell number.

Data set [2] relates to Hs578T cells. Briefly: CellTiter-Glo relative growth (luminescent ATP). In kind it is cell-based. As to the method: as §1, §2, §3
The subject of data set [3] is BT-549 cells. Briefly: CellTiter-Glo relative growth (luminescent ATP). The class given is cell-based. As to the method: as §1, §2, §3
Data set [4] relates to RAD51. The experiment in a line: Biotinylated nitro fatty acid affinity capture of RAD51. As to conditions: 293T cells expressing WT or mutant RAD51. In kind it is binding. As to the method:
HEK 293T were transiently transfected with Fugene 6 (Promega) and 5 μg RAD51 expressing vectors (wild-type, C312S, or C319S). […] Cells were prepared as above. […] Detection of RAD51 was accomplished by immunoblot with RAD51 antibody (1:2000) with actin antibody (1:3000) probed as loading control.

Data set [5] has as its system MDA-MB-231 xenograft tumor. Briefly: MDA-MB-231 xenograft tumor growth, 7.5 mg/kg/day oral gavage. In kind it is in vivo, mice. How it is done: MDA-MB-231 cells were injected into the fourth inguinal mammary fat pad of 6-week-old female athymic nude mice.
Where [6] appears, read: cisplatin 72 h plus daily 2 μM NO2-OA.
[7] abbreviates: doxorubicin 72 h plus daily 2 μM NO2-OA.
Where [8] appears, read: olaparib 72 h plus daily 2 μM NO2-OA.

Where only a bound is given, the exact number is not on record here.

On to `CCCCCCCCC(=CCCCCCCCC(=O)O)[N+](=O)[O-]` [NO2-OA, 10-nitro-octadec-9-enoic acid], for which the Growth inhibition in data set [1] (12 or 6.0 μM plus 0.01-75 μM talazoparib, daily for 3 days) was about 100%. Moreover, the “EC50 for growth inhibition, compared between compounds” value in data set [1] (ATP Celltiter Glo proliferation assay, n=3) is “higher EC50”. Also, the EC50 in data set [1] (Homo sapiens, MDA-MB-231, 72 h, read-out: EC50 for growth inhibition) was 3.66 ± 0.14 µM; in data set [2] (Homo sapiens, Hs-578T, 72 h, read-out: EC50 for growth inhibition) it was 1.98 ± 0.52 µM; in data set [3] (Homo sapiens, BT-549, 72 h, read-out: EC50 for growth inhibition) it was 3.78 ± 0.48 µM. Further, the “increased growth inhibition of cisplatin” value in data set [1] (setting [6]) came to 6 fold; in data set [2] (setting [6]), 3 fold. Also, the “enhanced growth inhibition of doxorubicin” value was 7 fold in data set [1] (setting [7]), 5 fold in data set [2] (setting [7]) and “not affected” in data set [3] (setting [7]). For the same compound, the “enhanced growth inhibition of olaparib” value in data set [1] (setting [8]) came to 5 fold; in data set [2] (setting [8]), 17 fold; in data set [3] (setting [8]), 3 fold. For the same compound, the “Combination index (CI), Chou-Talalay” value in data set [1] (with talazoparib (0.01-75 μM), 0.2-12 μM, daily 3 days, CI<1 is synergistic) is given as under 1. Besides, in data set [3] (cisplatin 72 h plus daily 2 μM NO2-OA, printed as suppressed), the “growth inhibition with cisplatin, suppressed” value is 1.4 fold. In addition, the “RAD51 cysteine targeted (Cys312Ser, Cys319Ser mutants)” value in data set [4] is recorded as “preferential reaction of NO2-OA with Cys319”. Also, in data set [5] (7.5 mg/kg/day oral gavage, 27 days post-treatment, versus vehicle and NO2-SA), the xenograft tumor growth entry is listed as “significantly reduced tumor growth”. The “body weight during treatment” value in data set [5] (7.5 mg/kg/day, 4 weeks) is “no weight loss”. Further, the overt toxicity result in data set [5] (7.5 mg/kg/day, 4 weeks) was “no overt toxic effects”. Further, in data set [5] (oral administration), the “tumor NO2-OA levels” value is given as “increased murine tumor NO2-OA levels”.
